Data reported in PubChem BioAssay (NCI).
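Each compound was tested at five concentrations against cells in 96-well plates for 48 hours. TGI: total growth inhibition.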

Key:
Assay in all cases: NCI tumour cell line growth inhibition, 48 h
786-0 renal = test system: 786-0 renal
A549 NSCLC = test system: A549 NSCLC
ACHN renal = test system: ACHN renal
CAKI-1 renal = test system: CAKI-1 renal
CCRF-CEM leukemia = test system: CCRF-CEM leukemia
COLO 205 colon = test system: COLO 205 colon
DMS 114 small cell lung = test system: DMS 114 small cell lung
DMS 273 small cell lung = test system: DMS 273 small cell lung
EKVX NSCLC = test system: EKVX NSCLC
HCC-2998 colon = test system: HCC-2998 colon
HCT-116 colon = test system: HCT-116 colon
HCT-15 colon = test system: HCT-15 colon
HL-60(TB) leukemia = test system: HL-60(TB) leukemia
HOP-62 NSCLC = test system: HOP-62 NSCLC
HOP-92 NSCLC = test system: HOP-92 NSCLC
HT29 colon = test system: HT29 colon
IGROV1 ovarian = test system: IGROV1 ovarian
K-562 leukemia = test system: K-562 leukemia
KM12 colon = test system: KM12 colon
KM20L2 colon = test system: KM20L2 colon
LOX IMVI melanoma = test system: LOX IMVI melanoma
LXFL 529 NSCLC = test system: LXFL 529 NSCLC
M14 melanoma = test system: M14 melanoma
M19-MEL melanoma = test system: M19-MEL melanoma
MALME-3M melanoma = test system: MALME-3M melanoma
MOLT-4 leukemia = test system: MOLT-4 leukemia
NCI-H226 lung = test system: NCI-H226 lung
NCI-H23 lung = test system: NCI-H23 lung
NCI-H460 lung = test system: NCI-H460 lung
NCI-H522 lung = test system: NCI-H522 lung
OVCAR-3 ovarian = test system: OVCAR-3 ovarian
OVCAR-5 ovarian = test system: OVCAR-5 ovarian
OVCAR-8 ovarian = test system: OVCAR-8 ovarian
RPMI-8226 leukemia = test system: RPMI-8226 leukemia
RXF 393 renal = test system: RXF 393 renal
SF-268 CNS = test system: SF-268 CNS
SF-539 CNS = test system: SF-539 CNS
SK-MEL-2 melanoma = test system: SK-MEL-2 melanoma
SK-MEL-28 melanoma = test system: SK-MEL-28 melanoma
SK-MEL-5 melanoma = test system: SK-MEL-5 melanoma
SK-OV-3 ovarian = test system: SK-OV-3 ovarian
SN12C renal = test system: SN12C renal
SNB-19 CNS = test system: SNB-19 CNS
SNB-75 CNS = test system: SNB-75 CNS
SR leukemia = test system: SR leukemia
SW-620 colon = test system: SW-620 colon
TK-10 renal = test system: TK-10 renal
U251 CNS = test system: U251 CNS
UACC-257 melanoma = test system: UACC-257 melanoma
UACC-62 melanoma = test system: UACC-62 melanoma
UO-31 renal = test system: UO-31 renal
XF 498 CNS = test system: XF 498 CNS
A498 renal = test system: A498 renal
DLD-1 colon = test system: DLD-1 colon
OVCAR-4 ovarian = test system: OVCAR-4 ovarian
SF-295 CNS = test system: SF-295 CNS

CC(c1ccc2c(c1)CCC1C2CC2OC23CC=CC(=O)[C@]13C)C1C[C@]2(C)O[C@]2(C)[C@H](O)O1 (stereo not given in full)
TGI (786-0 renal): > 100 µM
TGI (A549 NSCLC): > 100 µM
TGI (ACHN renal): > 100 µM
TGI (CAKI-1 renal): 81.3 µM
TGI (CCRF-CEM leukemia): > 100 µM
TGI (COLO 205 colon): > 100 µM
TGI (DMS 114 small cell lung): 4.97 µM
TGI (DMS 273 small cell lung): > 100 µM
TGI (EKVX NSCLC): > 100 µM
TGI (HCC-2998 colon): > 100 µM
TGI (HCT-116 colon): > 100 µM
TGI (HCT-15 colon): > 100 µM
TGI (HL-60(TB) leukemia): 71.9 µM
TGI (HOP-62 NSCLC): 40.3 µM
TGI (HOP-92 NSCLC): > 100 µM
TGI (HT29 colon): > 100 µM
TGI (IGROV1 ovarian): > 100 µM
TGI (K-562 leukemia): > 100 µM
TGI (KM12 colon): > 100 µM
TGI (KM20L2 colon): > 100 µM
TGI (LOX IMVI melanoma): > 100 µM
TGI (LXFL 529 NSCLC): > 100 µM
TGI (M14 melanoma): 33.7 µM
TGI (M19-MEL melanoma): > 100 µM
TGI (MALME-3M melanoma): > 100 µM
TGI (MOLT-4 leukemia): > 100 µM
TGI (NCI-H226 lung): 72 µM
TGI (NCI-H23 lung): 25.2 µM
TGI (NCI-H460 lung): > 100 µM
TGI (NCI-H522 lung): > 100 µM
TGI (OVCAR-3 ovarian): > 100 µM
TGI (OVCAR-5 ovarian): > 100 µM
TGI (OVCAR-8 ovarian): > 100 µM
TGI (RPMI-8226 leukemia): > 100 µM
TGI (RXF 393 renal): 50.5 µM
TGI (SF-268 CNS): > 100 µM
TGI (SF-539 CNS): > 100 µM
TGI (SK-MEL-2 melanoma): > 100 µM
TGI (SK-MEL-28 melanoma): > 100 µM
TGI (SK-MEL-5 melanoma): 28.1 µM
TGI (SK-OV-3 ovarian): > 100 µM
TGI (SN12C renal): > 100 µM
TGI (SNB-19 CNS): > 100 µM
TGI (SNB-75 CNS): > 100 µM
TGI (SR leukemia): 53.6 µM
TGI (SW-620 colon): > 100 µM
TGI (TK-10 renal): > 100 µM
TGI (U251 CNS): 55.3 µM
TGI (UACC-257 melanoma): 56.8 µM
TGI (UACC-62 melanoma): > 100 µM
TGI (UO-31 renal): > 100 µM
TGI (XF 498 CNS): > 100 µM

c1ccncc1
TGI (786-0 renal): > 100 µM
TGI (A498 renal): > 100 µM
TGI (A549 NSCLC): > 100 µM
TGI (ACHN renal): > 100 µM
TGI (CAKI-1 renal): > 100 µM
TGI (CCRF-CEM leukemia): > 100 µM
TGI (COLO 205 colon): > 100 µM
TGI (DLD-1 colon): > 100 µM
TGI (DMS 273 small cell lung): > 100 µM
TGI (EKVX NSCLC): > 100 µM
TGI (HCC-2998 colon): > 100 µM
TGI (HCT-116 colon): > 100 µM
TGI (HCT-15 colon): > 100 µM
TGI (HL-60(TB) leukemia): > 100 µM
TGI (HOP-62 NSCLC): > 100 µM
TGI (HOP-92 NSCLC): > 100 µM
TGI (HT29 colon): > 100 µM
TGI (IGROV1 ovarian): > 100 µM
TGI (K-562 leukemia): > 100 µM
TGI (KM12 colon): > 100 µM
TGI (KM20L2 colon): > 100 µM
TGI (LOX IMVI melanoma): > 100 µM
TGI (LXFL 529 NSCLC): > 100 µM
TGI (M14 melanoma): > 100 µM
TGI (MALME-3M melanoma): > 100 µM
TGI (MOLT-4 leukemia): > 100 µM
TGI (NCI-H226 lung): > 100 µM
TGI (NCI-H23 lung): > 100 µM
TGI (NCI-H460 lung): > 100 µM
TGI (NCI-H522 lung): > 100 µM
TGI (OVCAR-3 ovarian): > 100 µM
TGI (OVCAR-4 ovarian): > 100 µM
TGI (OVCAR-5 ovarian): > 100 µM
TGI (OVCAR-8 ovarian): > 100 µM
TGI (RPMI-8226 leukemia): > 100 µM
TGI (RXF 393 renal): > 100 µM
TGI (SF-268 CNS): > 100 µM
TGI (SF-295 CNS): > 100 µM
TGI (SF-539 CNS): > 100 µM
TGI (SK-MEL-2 melanoma): > 100 µM
TGI (SK-MEL-28 melanoma): > 100 µM
TGI (SK-MEL-5 melanoma): > 100 µM
TGI (SK-OV-3 ovarian): > 100 µM
TGI (SN12C renal): > 100 µM
TGI (SNB-19 CNS): > 100 µM
TGI (SNB-75 CNS): > 100 µM
TGI (SR leukemia): > 100 µM
TGI (SW-620 colon): > 100 µM
TGI (TK-10 renal): > 100 µM
TGI (U251 CNS): > 100 µM
TGI (UACC-257 melanoma): > 100 µM
TGI (UACC-62 melanoma): > 100 µM
TGI (UO-31 renal): > 100 µM
